Earlier results, collected in paper PMC12238501 (Scientific Reports, 2025).

Oc1ccc(C=Cc2cc(O)cc(O)c2)cc1 [Resveratrol, 3,4’,5-trihydroxystilbene]
Solubility in water: low solubility in water
